Source: US9856196B2, “Agent for reduction of sensory irritation” (Kao Corporation, priority 2012, dated 2018)
Like-named read-outs stand apart in the source and are kept apart here.

Key:
human TRPA1 = human TRPA1 (Homo sapiens, UniProt O75762); assay: Calcium imaging of TRPA1 activation in human TRPA1 stably expressing HEK293 cells; details: for TRPA1 activation caused by antiseptics and antiseptic aids: phenoxyethanol 20 to 30 mM, IPBC 0.03 to 0.1 mM, triclosan 0.1 to 0.3 mM, benzyl alcohol 20 to 30 mM, FIG. 3
Sequence of human TRPA1 (O75762 whole entry): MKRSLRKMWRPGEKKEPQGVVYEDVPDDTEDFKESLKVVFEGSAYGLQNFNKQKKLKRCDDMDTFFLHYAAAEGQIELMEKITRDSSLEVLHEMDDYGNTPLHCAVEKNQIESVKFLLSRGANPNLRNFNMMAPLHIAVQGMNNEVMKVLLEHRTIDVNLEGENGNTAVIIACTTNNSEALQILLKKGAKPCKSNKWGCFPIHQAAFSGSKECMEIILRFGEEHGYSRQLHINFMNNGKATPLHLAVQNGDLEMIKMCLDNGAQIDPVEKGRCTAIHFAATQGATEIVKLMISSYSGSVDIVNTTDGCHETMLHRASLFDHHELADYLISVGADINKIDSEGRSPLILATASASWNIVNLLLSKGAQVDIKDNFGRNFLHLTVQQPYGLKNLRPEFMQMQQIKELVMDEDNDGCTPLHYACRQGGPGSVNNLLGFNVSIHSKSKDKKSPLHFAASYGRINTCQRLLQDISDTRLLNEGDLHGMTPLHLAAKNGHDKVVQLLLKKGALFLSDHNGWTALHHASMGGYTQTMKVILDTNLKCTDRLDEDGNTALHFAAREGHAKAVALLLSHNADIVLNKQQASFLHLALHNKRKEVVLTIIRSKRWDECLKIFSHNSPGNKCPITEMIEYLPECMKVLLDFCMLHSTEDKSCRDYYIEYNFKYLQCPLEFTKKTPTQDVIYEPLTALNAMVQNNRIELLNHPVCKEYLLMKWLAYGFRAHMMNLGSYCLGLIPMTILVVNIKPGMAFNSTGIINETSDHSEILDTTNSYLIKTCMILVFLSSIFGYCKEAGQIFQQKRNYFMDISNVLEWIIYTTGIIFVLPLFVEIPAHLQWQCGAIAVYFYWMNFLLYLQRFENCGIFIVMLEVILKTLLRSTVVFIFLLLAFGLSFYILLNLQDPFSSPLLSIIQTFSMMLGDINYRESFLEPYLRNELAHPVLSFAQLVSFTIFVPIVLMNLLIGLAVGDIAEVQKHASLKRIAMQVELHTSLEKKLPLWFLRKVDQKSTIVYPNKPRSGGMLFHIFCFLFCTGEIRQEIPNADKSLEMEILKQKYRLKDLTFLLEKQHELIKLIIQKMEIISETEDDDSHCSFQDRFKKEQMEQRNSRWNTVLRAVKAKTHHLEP
Description: (1) Preparation of Human TRPA1 Stably Expressing Cell Line
The human TRPA1 gene of which the full length is inserted into pENTR223.1 was purchased from Open Biosystems. The TRPA1 gene was sub-cloned into an expression vector pcDNA3.2-V5/DEST (Invitrogen) and transfected into HEK293 cells using Lipofectamine 2000 (Invitrogen).
(3) Evaluation of the Inhibitory Effect on TRPA1 Activation Caused by AITC

[1] = Inhibitory effect on irritating odor (ammonia odor, panel evaluation); assay type: in vivo; details: for ammonia odor (irritating odor) score, average: 7-stage scale 0 to 6
Description: Ammonia was volatilized and saturated by putting a cotton ball impregnated with a 28% ammonia water (20 μl) in a 50 ml syringe for 12 hours or more. The intensity of ammonia odor (irritating odor) was evaluated using a 7-stage scale (0 to 6). Comparative evaluation was carried out without sniffing the test perfume.
(2) Evaluation scale 0; No irritating odor, 1; very faint, 2: faint, 3; easily noticeable, 4; strong, 5; very strong, 6; extremely strong

human skin = assay: Sensory irritation property to antiseptic on human skin (discomfort score, sensitive women); assay type: in vivo; details: antiseptic solution (0.2% methylparaben + 0.35% phenoxyethanol) + 0.05% Compound 1 on face, versus antiseptic solution alone; maximum score, scale 0.0-3.0; FIG. 4
Description: (1) Selection of Test Subjects
To evaluate the skin sensory irritation, 22 women (age 20 to 59) having high sensitivity (1% lactic acid-sensitive, low current perception threshold and sensitive skin conscious with medical history of allergic disease) were selected as the subjects.
(2) Evaluation of Sensory Irritation Property to Antiseptic
After washing the face, the subjects entered a constant temperature-humidity room (room temperature 20° C., humidity about 50%) and were acclimated for 20 minutes, followed by applying 300 ill of distilled water heated to 37° C. in one side of the face from the cheek to the nose. 1, 2.5, 5 and 8 minutes after the application, the degree (intensity) of unpleasant sensation (pain) reported in accordance with the following unpleasant sensation reference values was notated.
0.0; None or pleasant sensation
0.5; Slight discomfort barely detectable
1.0; Mild discomfort, detectable sensation but tolerable
1.5; Mild to moderate discomfort
2.0; Moderate discomfort, unpleasant feeling but tolerable
2.5; Moderate to severe discomfort
3.0; Severe discomfort, intense unpleasant feeling
The distilled water was wiped off 8 minutes later, 300 μl of an antiseptic solution (0.2% methylparaben (MP)+0.35% phenoxyethanol (Phe) aqueous solution) was applied to the same part to notate the degrees of unpleasant sensation in the same manner. […]

[2] = HEK293, read-out: Ratio for TRPA1 inhibition (%), 10 μM AITC, test material 100 μM
[3] = HEK293, read-out: Ratio for TRPA1 inhibition (%), 5.0 μM AITC, test material 100 μM

## CC(CCCO)c1ccccc1 (stereo not drawn) [Comparative Compound 1, 4-phenyl-1-pentanol, reference compound]
Human TRPA1; [2]
  inhibition at 100 µM: 0%

## OCCCCc1ccccc1 [Comparative Compound 2, 4-phenyl-1-butanol, reference compound]
Human TRPA1; [3]
  inhibition at 100 µM: 0%
Human TRPA1; [2]
  inhibition at 100 µM: 0.8%

## CC(CO)CC(C)c1ccccc1 (stereo not drawn) [Compound 1, 2-methyl-4-phenyl-1-pentanol]
[1]; 1 minute later
  ammonia odor (irritating odor) score, average: 2
[1]; 2 minutes later
  ammonia odor (irritating odor) score, average: 2
[1]; 5 minutes later
  ammonia odor (irritating odor) score, average: 2
[1]; 6 minutes later
  ammonia odor (irritating odor) score, average: 3
[1]; 10 minutes later
  ammonia odor (irritating odor) score, average: 3
[1]; Immediately after inhalation of test perfume, five panelists
  ammonia odor (irritating odor) score, average: 1
[1]; after 1 minute sniffing of test perfume
  time the ammonia odor reducing effect was maintained after the inhalation: 5 min
Human skin
  discomfort (pain) score: reduced

## CCC(C=C(C)CO)c1ccccc1 (stereo not drawn) [Compound 5, 2-methyl-4-phenyl-2-hexen-1-ol]
Human TRPA1; [3]
  inhibition at 100 µM: 83.4%
Human TRPA1; [2]
  inhibition at 100 µM: 27.6%

## CCC(CC(C)CO)c1ccccc1 (stereo not drawn) [Compound 6, 2-methyl-4-phenyl-1-hexanol]
Human TRPA1; [3]
  inhibition at 100 µM: 18.7%
Human TRPA1; [2]
  inhibition at 100 µM: 9.7%

## CC/C(=C\C(CC)c1ccccc1)CO (stereo not drawn) [Compound 7, (E)-2-ethyl-4-phenyl-2-hexen-1-ol]
Human TRPA1
  IC50: 3.4 µM
Human TRPA1; [3]
  inhibition at 100 µM: 103%
Human TRPA1; [2]
  inhibition at 100 µM: 102%

## CC/C(=C/C(CC)c1ccccc1)CO (stereo not drawn) [Compound 8, (Z)-2-ethyl-4-phenyl-2-hexen-1-ol]
Human TRPA1
  IC50: 2 µM
Human TRPA1; [3]
  inhibition at 100 µM: 102%
Human TRPA1; [2]
  inhibition at 100 µM: 101%

## CC(CO)C(C)Cc1ccccc1 (stereo not drawn) [Compound 9, 2,3-dimethyl-4-phenyl-1-butanol]
Human TRPA1; [3]
  inhibition at 100 µM: 89.5%
Human TRPA1; [2]
  inhibition at 100 µM: 51.7%

## C/C(=C\C(C)c1ccccc1)CO (stereo not drawn) [Compound 10, (E)-2-methyl-4-phenyl-2-penten-1-ol]
Human TRPA1
  IC50: 32.5 µM
Human TRPA1; [3]
  inhibition at 100 µM: 92.9%
Human TRPA1; [2]
  inhibition at 100 µM: 31.8%

## CC(CO)CCc1ccccc1 (stereo not drawn) [Compound 11, 2-methyl-4-phenyl-1-butanol]
Human TRPA1; [3]
  inhibition at 100 µM: 19.5%
Human TRPA1; [2]
  inhibition at 100 µM: 3.9%

## CC(CC(C)C(C)O)c1ccccc1 (stereo not drawn) [Compound 12, 3-methyl-5-phenyl-2-hexanol]
Human TRPA1; [3]
  inhibition at 100 µM: 54.9%
Human TRPA1; [2]
  inhibition at 100 µM: 27.1%

## OCc1ccccc1 [benzyl alcohol, reference compound]
Human TRPA1
  TRPA1 activation caused by antiseptics and antiseptic aids: activate TRPA1 in a dose dependent manner

## Oc1cc(Cl)ccc1Oc1ccc(Cl)cc1Cl [triclosan, reference compound]
Human TRPA1
  TRPA1 activation caused by antiseptics and antiseptic aids: activate TRPA1 in a dose dependent manner

## d-camphor [reference compound]
Human TRPA1; 5.0 μM AITC, test material 100 μM
  Ratio for TRPA1 inhibition (%): 1.8%
Human TRPA1; 5.0 μM AITC, test material 500 μM
  Ratio for TRPA1 inhibition (%): 27.8%
Human TRPA1; 10 μM AITC, test material 100 μM
  Ratio for TRPA1 inhibition (%): 0.0%
Human TRPA1; 10 μM AITC, test material 500 μM
  Ratio for TRPA1 inhibition (%): 15.1%
Human TRPA1; 30 μM AITC, test material 0.01%
  Ratio for TRPA1 inhibition (%): 6.9%
Human TRPA1; 30 μM AITC, test material 0.03%
  Ratio for TRPA1 inhibition (%): 89.7%
Human TRPA1; stimulant Benzyl alcohol 20 mM, test material 0.5 mM
  Ratio for TRPA1 inhibition (%): −0.89%
Human TRPA1; stimulant IPBC 0.03 mM, test material 0.5 mM
  Ratio for TRPA1 inhibition (%): 32.40%
Human TRPA1; stimulant Phenoxyethanol 20 mM, test material 0.5 mM
  Ratio for TRPA1 inhibition (%): 13.96%
Human TRPA1; stimulant Triclosan 0.1 mM, test material 0.5 mM
  Ratio for TRPA1 inhibition (%): 27.45%
